One experiment concerns HNES cells. Briefly: Colony formation of HNES cells in 2-deoxyglucose. Format: cell-based, human. Conditions: HNES cells versus HNES-primed cells. The source says: Primed PSC rely on anaerobic glycolysis with very low mitochondrial respiration capacity (Zhou et al., 2012). […] We evaluated the capacity of HNES cells to form colonies in the presence of the glycolysis inhibitor 2-deoxyglucose. […] HNES cells also stained intensely with MitoProbe™ DilC1, reflecting mitochondrial membrane potential (not shown).

Experiment [1] relates to reset cells and conventional PSC. Briefly: Proliferation / colony formation in 2-deoxyglucose. The settings on record: reset cells in contrast to conventional PSC, 7 days. Format: cell-based, human. The protocol:
C & D. Proliferation in 2-deoxyglucose. After single cell dissociation, 3×10^4 cells were seeded on 12 wells and cultured for 7 days with indicated concentrations of 2-deoxyglucose (2DG) or reduced glucose. ROCKi was added to conventional PSC.
We examined functional consequences of altered metabolic properties by culture in 2-deoxyglucose to inhibit glycolysis and in reduced concentrations of glucose to increase dependency on mitochondrial respiration.

On to `O=CC[C@@H](O)[C@H](O)[C@H](O)CO` [2-deoxyglucose], for which the “colony formation in the presence of 2-deoxyglucose” value in the experiment on HNES cells is on record as “Undifferentiated HNES cells readily formed colonies while HNES-primed cells did not survive”; in experiment [1], “reset cells formed undifferentiated colonies”.

(Values after patent US10894948B2, “Resetting pluripotent stem cells” (CAMBRIDGE ENTERPRISE LIMITED, priority 2014, dated 2021).)
